The subject of assay [1] is beta-catenin driven transcription in HAP1 WT cells. Put plainly: qPCR of beta-catenin driven transcription in HAP1 WT cells (CHIR treated). The assay is classed as cell-based. The note with it: 24-hour treatment. On the technique in general: Real-time PCR tracks product formation cycle by cycle.
Assay [2] concerns HAP1 CTNNB1 knockout cells. Put plainly: qPCR in HAP1 beta-catenin KO cells. The assay is classed as cell-based.

SMILES strings stand for the structures.

For `Cc1c[nH]c(-c2cnc(NCCNc3ccc(C#N)cn3)nc2-c2ccc(Cl)cc2Cl)n1` [CHIR, CHIR99021, reference compound], the beta-catenin protein levels entry in assay [1] was “more than two-fold”. The “expression of AXIN2, SP5, or RNF43” value in assay [2] is “neither CHIR nor peptide A and I-66 affected”.
